These results are taken from patent publication US5661130A, “Absorption enhancers for drug administration” (The UAB Research Foundation, priority 1993, dated 1997).

The subject of data set [1] is normal rats with blood glucose elevated by xylazine/ketamine anesthesia. The experiment in a line: Hypoglycemic effect of insulin eye drops with absorption enhancer in anesthetized rats. Type of data set: in vivo, rat. As for the experimental part: This mimics the hyperglycemic state seen in diabetic animals and humans. The elevated levels of D-glucose that occur in response to anesthesia provide an optimal system in which to measure any systemic hypoglycemic action of insulin-containing eye drops.
Adult male Sprague-Dawley rats (250-350g) were fed ad libitum, and experiments were conducted between 10:00 a.m. and 3:00 p.m. Rats were anesthetized with a mixture of xylazine (7.5 mg/kg) and ketamine (50 mg/kg) given intraperitoneally (IP) and allowed to stabilize for 50-90 min before the administration of eye drops. […] Blood D-glucose values were measured by collecting a drop of blood from the tail vein at 5-10 min intervals throughout the experiment and applying the blood to glucometer strips (Chemstrip bG) according to directions provided with the instrument (Accu-Chek II, Boehringer Mannheim Diagnostics; Indianapolis, Ind.).
Eye drops were instilled at time 0 using a plastic disposable pipette tip with the eyes held open, and the rat was kept in a horizontal position on a warming pad (37° C.) throughout the protocol. […] Octyl β-D-maltoside, decyl-β-D-maltoside, dodecyl-β-D-maltoside, tridecyl-β-D-maltoside and tetradecyl-β-D-maltoside were obtained from Anatrace, Inc. (Maumee, Ohio).

In a further data set the test system is rectal mucosa of rats. The conditions noted are these: Murakami et al.; cited from earlier work.
Data set [2] deals with normal rats with blood glucose elevated by xylazine/ketamine anesthesia. The data set is described as follows: Hypoglycemic effect of insulin nose drop with absorption enhancer. The conditions noted are these: nose drop 0.2% insulin with 0.5% tetradecylmaltoside, after eye drops. Type of data set: in vivo, rat. As for the experimental part: Adult male Sprague-Dawley rats (250-350g) were fed ad libitum, and experiments were conducted between 10:00 a.m. and 3:00 p.m. Rats were anesthetized with a mixture of xylazine (7.5 mg/kg) and ketamine (50 mg/kg) given intraperitoneally (IP) and allowed to stabilize for 50-90 min before the administration of eye drops. Anesthesia of a normal rat with xylazine/ketamine produces an elevation in blood glucose values which provides an optimal state to determine the systemic hypoglycemic action of insulin-containing eye drops. Blood D-glucose values were measured by collecting a drop of blood from the tail vein at 5-10 min intervals throughout the experiment and applying the blood to glucometer strips (Chemstrip bG) according to directions provided with the instrument (Accu-Chek II, Boehringer Mannheim Diagnostics; Indianapolis, Ind.). Blood D-glucose values ranged from 200 to 400 mg/dl in anesthetized nondiabetic rats.
Eye drops were instilled at time 0 using a plastic disposable pipette tip with the eyes held open, and the rat was kept in a horizontal position on a warming pad (37° C.) throughout the protocol. […] Octyl β-D-maltoside, decyl-β-D-maltoside, dodecyl-β-D-maltoside, tridecyl-β-D-maltoside and tetradecyl-β-D-maltoside were obtained from Anatrace, Inc. (Maumee, Ohio). […]

The test system of data set [3] is monocytes or endothelial cells. The conditions noted are these: DiCorleto et al.; cited from earlier work.
Data set [4] concerns intact mouse fibrosarcoma cells. The following applies: LeGrue et al.; cited from earlier work.
The next data set has as its system rats. The data set is described as follows: Hyperglycemic effect of glucagon eye drops with surfactant. Type of data set: in vivo, rat. The conditions noted are these: for blood D-glucose values after glucagon eye drops (in words): surfactant plus glucagon, rats previously treated with eye drops of same surfactant plus insulin; for Blood Glucose Concentration: glucagon eye drops with 0.5% surfactant agent added after 120 min (after insulin eye drops). As for the experimental part: Glucagon absorption from the eye was measured in rats given eye drops containing various surfactants plus glucagon (30 μg) (Eli Lilly, Indianapolis, Ind.) by monitoring an elevation in blood D-glucose levels. […] Once again, paired animals that received eye drops containing the surfactant agents only, or glucagon only, could be compared to animals receiving eye drops with surfactant agents and glucagon. […] Additionally, the use of glucagon eyedrops to treat a hypoglycemic crisis is now possible provided that an appropriate surfactant agent is included in the eye drop formulation.

[5] abbreviates: 0.5% enhancer with 0.2% regular porcine insulin.
The mark [6] stands for this setting: enhancer concentration not singled out (0.125-0.5%), with 0.2% regular porcine insulin.
Setting [7] is: 0.25% enhancer with 0.2% regular porcine insulin.

With `CCCCCCOC1O[C@H](CO)[C@@H](O)[C@H](O)[C@H]1O` (stereo partly drawn) [hexylglucoside, Hexylglucopyranoside], in data set [1] (setting [5]), the “Effect as absorption enhancer on blood glucose, insulin eye drops (in words)” value (“Effect as absorption enhancer” for short) is “ineffective”.

For `CCCCCCCOC1O[C@H](CO)[C@@H](O)[C@H](O)[C@H]1O` (stereo partly drawn) [heptylglucoside, heptylglucopyranoside], the “Effect as absorption enhancer” value in data set [1] (setting [5]) is given as “ineffective”.

Take decylsucrose: the “Effect as absorption enhancer” value in data set [1] (setting [5]) is reported as “effective in reducing blood glucose levels”. Moreover, the blood glucose levels in data set [1] (insulin eye drops with 0.5% decylsucrose, time 0 min) is 313 mg/dL; in data set [1] (insulin eye drops with 0.5% decylsucrose, time 120 min), 164 mg/dL.

Take `CCCCCCCCCOC1O[C@H](CO)[C@@H](O)[C@H](O)[C@H]1O` (stereo partly drawn) [nonylglucoside, nonylglucopyranoside]: the “Effect as absorption enhancer” value in data set [1] (setting [5]) was “effectively stimulated insulin absorption”. Besides, the blood glucose levels in data set [1] (insulin eye drops with 0.5% nonylglucoside, initial value (from)) was 297 mg/dL; in data set [1] (insulin eye drops with 0.5% nonylglucoside, reduced value (to)) it was 150 mg/dL.

For `CCCCCCCCO[C@@H]1O[C@H](CO)[C@@H](O[C@H]2O[C@H](CO)[C@@H](O)[C@H](O)[C@H]2O)[C@H](O)[C@H]1O` [octylmaltoside, Octyl β-D-maltoside], in data set [1] (setting [6]), the “Effect as absorption enhancer” value is listed as “no”.

As for `CCCCCCCCCCCCO[C@@H]1O[C@H](CO)[C@@H](O[C@H]2O[C@H](CO)[C@@H](O)[C@H](O)[C@H]2O)[C@H](O)[C@H]1O` [Dodecyl Maltoside, dodecyl-β-D-maltoside], the “Effect as absorption enhancer” value is “ineffective” in data set [1] (0.125% enhancer with 0.2% regular porcine insulin); “smaller and more transient effect” in data set [1] (setting [7]); “equally effective” in data set [1] (0.375% enhancer with 0.2% regular porcine insulin); “prompt and sustained fall in blood glucose levels” in data set [1] (0.5% enhancer with 0.2% regular porcine insulin, listed as dodecyl-β-D-maltoside); “equally effective” in data set [1] (0.5% enhancer with 0.2% regular porcine insulin, listed as dodecylmaltoside). Besides, in the data set with rectal mucosa of rats, the “histological change to the rectal tissue” value was “without producing any apparent histological change”. In addition, the “promoting absorption of dextrans and carboxyfluoroscein across the rectal mucosa” value with rectal mucosa of rats is “effective”.

Consider `CCCCCCCCCCCCCCO[C@@H]1O[C@H](CO)[C@@H](O[C@H]2O[C@H](CO)[C@@H](O)[C@H](O)[C@H]2O)[C@H](O)[C@H]1O` [Tetradecyl Maltoside, tetradecyl-β-D-maltoside], for which the “Effect as absorption enhancer” value is “effective” in data set [1] (0.125% enhancer with 0.2% regular porcine insulin, listed as tetradecyl maltoside); “prompt and prominent drop in blood glucose levels” in data set [1] (0.125% enhancer with 0.2% regular porcine insulin, listed as tetradecylmaltoside); “effective” in data set [1] (setting [5]). Also, the “blood glucose levels after nose drop (in words)” value in data set [2] is “further decreased”.

Regarding `CCCCCCCCO[C@@H]1O[C@H](CO)[C@@H](O)[C@H](O)[C@H]1O` [Octylglucoside, octyl β-D-glucoside], in data set [3], the “viability or morphology of monocytes or endothelial cells” value is recorded as “no effect”. For the same compound, in data set [4], the “cytolysis of intact mouse fibrosarcoma cells” value is “non-cytolytic”.

As for dodecylsucrose [Dodecyl Sucrose], the blood glucose levels is 335 mg/dL in data set [1] (insulin eye drops with 0.125% dodecylsucrose, time 0 min) and 150 mg/dL in data set [1] (insulin eye drops with 0.125% dodecylsucrose, time 120 min). Moreover, in the data set on rats, the “blood D-glucose values after glucagon eye drops (in words)” value (“blood D-glucose values” below) is recorded as “significantly increased”.

As to `CCCCCCCCCCCCCOC1OC(CO)C(OC2OC(CO)C(O)C(O)C2O)C(O)C1O` [Tridecyl Maltoside, tridecyl-β-D-maltoside], the “Effect as absorption enhancer” value is “sustained for the two hour time course of the experiment” in data set [1] (setting [7]), “effective” in data set [1] (setting [5]) and “dose-dependent effect” in data set [1] (setting [6]). The “Blood Glucose Concentration” value came to 307 mg/dL in data set [1] (0.5% surfactant agent, time -10 min, before insulin eye drops); 255 mg/dL in data set [1] (0.5% surfactant agent, time -20 min, before insulin eye drops); 323 mg/dL in data set [1] (insulin eye drops with 0.5% surfactant agent, time 0 min); 309 mg/dL in data set [1] (insulin eye drops with 0.5% surfactant agent, time 10 min); 217 mg/dL in data set [1] (insulin eye drops with 0.5% surfactant agent, time 20 min); 131 mg/dL in data set [1] (insulin eye drops with 0.5% surfactant agent, time 30 min). Besides, the “Blood Glucose Concentration” value amounted to 100 mg/dL in data set [1] (insulin eye drops with 0.5% surfactant agent, time 40 min); 87 mg/dL in data set [1] (insulin eye drops with 0.5% surfactant agent, time 50 min); 107 mg/dL in data set [1] (insulin eye drops with 0.5% surfactant agent, time 60 min); 115 mg/dL in data set [1] (insulin eye drops with 0.5% surfactant agent, time 70 min); 79 mg/dL in data set [1] (insulin eye drops with 0.5% surfactant agent, time 80 min); 85 mg/dL in data set [1] (insulin eye drops with 0.5% surfactant agent, time 90 min). Also, the “Blood Glucose Concentration” value in data set [1] (insulin eye drops with 0.5% surfactant agent, time 100 min) worked out at 76 mg/dL; in data set [1] (insulin eye drops with 0.5% surfactant agent, time 110 min) it was 74 mg/dL; in data set [1] (insulin eye drops with 0.5% surfactant agent, time 120 min), 75 mg/dL; in the data set with rats (time 130 min) it was 82 mg/dL; in the data set on rats (time 140 min), 121 mg/dL; in the data set on rats (time 150 min) it was 148 mg/dL. Moreover, the “Blood Glucose Concentration” value stood at 173 mg/dL in the data set with rats (time 160 min), 162 mg/dL in the data set with rats (time 170 min), 162 mg/dL in the data set on rats (time 180 min) and 156 mg/dL in the data set on rats (time 190 min). In the data set with rats, the “blood D-glucose values” value is given as “significantly increased”.

`CCCCCCCCCCO[C@@H]1O[C@H](CO)[C@@H](O[C@H]2O[C@H](CO)[C@@H](O)[C@H](O)[C@H]2O)[C@H](O)[C@H]1O` [Decyl Maltoside, decyl-β-D-maltoside]: the “Effect as absorption enhancer” value was “prompt and sustained fall in blood glucose levels” in data set [1] (setting [5]); “less” in data set [1] (setting [6]). Moreover, the “blood D-glucose values” value in the data set on rats is “significantly increased”.
